Reference: US9415094B2, “Method of reducing side effects associated with administration of tissue plasminogen activator (tPA)” (INSERM (Institut National de la Sante et de la Recherche …, priority 2009, dated 2016)

How the values were obtained:
[1] = test system: elastase-treated mice (emphysema); test: Elastase-induced emphysema in mice; format: in vivo; details: HDL 75 mg/kg; AAT alone 3.75 mg/kg; i.v., 4 injections
Method: First, large amount of HDL purified from human plasma by ultracentrifugation was pooled in order to work with the same batch of HDL and HDL enriched with AAT. AAT was incubated for 16 hours at 37° C. under gentle agitation. […] A Western-Blot for AAT and apolipoprotein A-I was performed on HDL and HDL loaded with AAT. […] Anti-elastase assay was performed in parallel, corroborating the results obtained by WB. These experiments quantify AAT in enriched HDL. The same amount of free AAT was then injected in a control group. The aim of this experiment is to test whether HDL-AAT prevent more the development of emphysema relative to AAT injected alone. HDL containing naturally AAT are also injected in another group.
45 mice are subjected to intra-tracheal elastase instillation.
The mice were sacrificed 28 day after initial instillation of elastase, and the emphysema was semi-quantified by scoring alveoli destruction (double blind determination by two independent pathologists).

embolic MCAO = test: Embolic MCAO (eMCAO) with tPA (Example 9)
Text: STAIR recommendations have been followed to avoid bias due to experimental design 10. Animal care and experimental protocols were approved by the Animal Ethics Committee of the INSERM-University Paris 7. Male Sprague-Dawley rats (Janvier, France) weighing 300 to 350 g, were anesthetized by isoflurane mixed with air (4% for induction; 1% during surgery), under spontaneous respiration. Two different models of focal cerebral ischemia were used as requested by STAIR recommendations: embolic (eMCAO) and transient filament MCAO (fMCAO). Focal cerebral ischemia was induced by intraluminal occlusion of the middle cerebral artery for 4 hours. eMCAO was induced by injection of a preformed clot at the origin of MCA as already described. Continuous laser Doppler flowmetry (VMS, Moor Instrument) was used to monitor regional cerebral perfusion to ensure the adequacy of filament MCA occlusion (perfusion decreased to <20% of preischemic baselines). […] Saline (2.0 mL/kg body weight) with or without recombinant tPA (10 mg/kg body weight; Actilyse, Boehringer Ingelheim) was administered (10% bolus, 90% continuous infusion) to rats via the right femoral vein. The relatively high dose of tPA was necessary to achieve a fibrinolytic effect in rats similar to that of thrombolytic therapy in humans. Continuous tPA or saline infusion (for 30 min. Harvard Apparatus Infusion Pump) started 4 hours after stroke onset, immediately before recanalization (after withdrawal of the filament in fMCAO), or 4 hours after clot placement in the MCA. […] Glycemia, arterial blood pressure and blood gases were also monitored during surgery. […]
(§1) Seven coronal sections of the brain (2 mm in thickness) were stained with 2% 2,3,5-triphenyltetrazolium chloride (TTC, Sigma-Aldrich) for 20 minutes at room temperature. […] Ten-micrometer sections were cut from the caudal site of all 7 slices and analyzed before TTC staining. Areas of hemorrhagic transformation from these 7 brain sections were measured using Photoshop software by semi-automatic selection of extravasated erythrocytes.

blood-brain barrier = test: IgG extravasation in filament MCAO model; format: in vivo, Sprague-Dawley rats; details: tPA vs saline; combination vs tPA alone
Method: Blood-brain barrier permeability was evaluated in vivo by using fluorescence detection of IgG extravasation in filament MCAO model. At 24 hours after stroke, rats were deeply anesthetized with pentobarbital and transcardially perfused with saline. Brains were removed, cut in 2 mm coronal sections, embedded with OCT and frozen. Ten μm sections (at +0.70 mm posterior to bregma) were prepared. Sections were prepared and incubated overnight at 4° C. with donkey anti-rat IgG antibodies (5 μg/mL, Molecular Probes) labelled with Alexa Fluor® 488. IgG extravasation was quantified semi-automatically with morphometry software (Histolab 6.1.5, Microvision Instruments).

hCMEC/D3 cells = test: In vitro blood-brain barrier model with tPA under OGD; format: cell-based, human
Method: The human brain endothelial cell line hCMEC/D3 kindly provided by Dr. P. O. Couraud. Cells were cultured in complete EBM-2 medium (Endothelial Basal Medium+2.5% of fetal calf serum and supplements containing hydrocortisone and growth factors).
OGD (Oxygen Glucose Deprivation) conditions were obtained by using DMEM medium without glucose (Gibco) versus 1 g/L glucose DMEM for non-OGD conditions. Oxygen deprivation was obtained by using a hypoxia chamber (Billups-Rothenberg) where atmospheric air was replaced by a mix of gas (0% O2, 5% CO2, 95% N2, Air Product). DMEM used for OGD conditions was equilibrated with the same mix.
For permeability experiments, hCMEC/D3 cells were seeded at 5.105 cells/cm^2 on collagen inserts (PCF filters, 0.4 μm pore size, Millicell 24-well plates, Millipore) in complete EBM-2. Cells were grown for 14 days post-confluence before use. Permeability was assessed using fluorescein isothiocyanate (FITC) labelled dextran (70 kDa molecular weight). […] 200 μL from the collecting wells were transferred into a 96-well plate, and the dextran fluorescence was determined on the microplate reader at 485 nm (excitation) and 538 nm (emission). Fluorescence was converted to concentration using a standard curve. The volume cleared was calculated from the ratio of dextran concentration in each sample to the applied concentration (0.385 mg/mL). The endothelial permeability coefficient Pe (cm/min) was calculated by determining the volumes of clearance of dextran with or without cells. The cleared volume was calculated from the […], and plotted against time. PS (permeability surface) was calculated from 1/PS=1/PSe−1/PSf, where PSe is the slope of clearance in the presence of cells and PSf is the slope for a blank insert (cell free)16. […]
For detection of fibronectin in HCMEC/D3 cell culture supernatant, 5 μL of conditioned medium were analyzed by SDS-8% PAGE. […]

[2] = test system: collagen IV (basal lamina of cerebral microvessels); test: Collagen IV immunoreactivity in cerebral microvessels (filament MCAO); format: in vivo, Sprague-Dawley rats; details: 24 hours after stroke; combination relative to tPA alone
Method: Frozen sections were fixed with 3.7% paraformaldehyde and blocked with 10% goat serum. Sections were incubated overnight at 4° C. with a rabbit polyclonal to collagen IV (2 μg/mL, Abcam) for detection of basal lamina of intracerebral vessels. FITC-conjugated Bandeiraea Simplicifolia Lectin I (isolectin B4) (5 μg/mL, Vector Laboratories) was used to visualize endothelial cells. Non-immune rabbit IgG were included in each set of experiments as primary antibody to test the specificity of the signal. We used Alexa-Fluor® 555 as secondary antibodies. Immunostaining was analysed with a fluorescent microscope interfaced with a digital capture system. All immunohistological evaluations were carried out by an observer who was blinded to the treatment. For semi-quantification of the collagen type IV expression, three fields of each territory were acquired using a×10 objective. A threshold of fluorescence intensity, which encompasses positive vessels on the contralateral image, was applied to each corresponding ipsilateral image. IHC analysis was performed in filament MCAO model.

transient filament MCAO = test: Transient filament MCAO (fMCAO) with tPA (Example 9)
Text: STAIR recommendations have been followed to avoid bias due to experimental design 10. Animal care and experimental protocols were approved by the Animal Ethics Committee of the INSERM-University Paris 7. Male Sprague-Dawley rats (Janvier, France) weighing 300 to 350 g, were anesthetized by isoflurane mixed with air (4% for induction; 1% during surgery), under spontaneous respiration. Two different models of focal cerebral ischemia were used as requested by STAIR recommendations: embolic (eMCAO) and transient filament MCAO (fMCAO). Focal cerebral ischemia was induced by intraluminal occlusion of the middle cerebral artery for 4 hours. eMCAO was induced by injection of a preformed clot at the origin of MCA as already described. Continuous laser Doppler flowmetry (VMS, Moor Instrument) was used to monitor regional cerebral perfusion to ensure the adequacy of filament MCA occlusion (perfusion decreased to <20% of preischemic baselines). […] Saline (2.0 mL/kg body weight) with or without recombinant tPA (10 mg/kg body weight; Actilyse, Boehringer Ingelheim) was administered (10% bolus, 90% continuous infusion) to rats via the right femoral vein. The relatively high dose of tPA was necessary to achieve a fibrinolytic effect in rats similar to that of thrombolytic therapy in humans. Continuous tPA or saline infusion (for 30 min. Harvard Apparatus Infusion Pump) started 4 hours after stroke onset, immediately before recanalization (after withdrawal of the filament in fMCAO), or 4 hours after clot placement in the MCA. After saline or tPA administration, rats were returned to their cages. Body temperature was maintained at 37° C.±0.5 with a heating pad for the duration of surgery. Glycemia, arterial blood pressure and blood gases were also monitored during surgery. […] Computer-based randomization was used to allocate drug regimens to each group. Experiments were blinded and the operator was unaware of group allocation during surgery and outcome assessment.
as §1, with “temperature. […] Volume calculation with oedema correction was performed blindly using the following formula: 100× (contralateral hemisphere volume−non infarct ipsilateral hemisphere volume)/contralateral hemisphere volume.” for “temperature.”

[3] = acute phase of stroke; cited from earlier work

| Substance | protective effect on development of emphysema [1] | infarct volume (embolic MCAO; 24 hours, tPA and HDL alone vs saline, combination vs tPA alone) | mortality rate (embolic MCAO; tPA 10 mg/kg 4 hours after stroke onset, 24 hours) | mortality (embolic MCAO; tPA and HDL alone vs saline, combination vs tPA alone) | IgG extravasation in the ischemic hemisphere (blood-brain barrier) | VE-cadherin intercellular junction organization (hCMEC/D3 cells; 200 nM tPA and/or 400 μg/mL HDL) | release of soluble fibronectin/fragments in supernatants (hCMEC/D3 cells; 200 nM tPA and/or 400 μg/mL HDL, Western Blot) | BBB permeability in vitro (hCMEC/D3 cells; 200 nM tPA, 4 hours of stimulation) | number of collagen IV immunoreactive vessels in the infarcted area [2] | edema surrounding ischemic cerebral vessels (transient filament MCAO; compared to HDL+tPA group) | infarct volume (transient filament MCAO; fMCAO, 24 hours, tPA and HDL alone vs saline, combination vs tPA alone) | mortality rate (transient filament MCAO; fMCAO, tPA 10 mg/kg 4 hours after stroke onset, 24 hours) | mortality (transient filament MCAO; fMCAO, tPA and HDL alone vs saline, combination vs tPA alone) | increase in symptomatic cerebral haemorrhage [3] |
| --- | --- | --- | --- | --- | --- | --- | --- | --- | --- | --- | --- | --- | --- | --- |
| AAT: 52 kD glycoprotein, natural inhibitor of neutrophil elastase | mild protective effect | – | – | – | – | – | – | – | – | – | – | – | – | – |
| tPA: recombinant tissue plasminogen activator, thrombolytic drug approved for stroke | – | increased infarct volume | 56.25% | increased | significantly increased IgG extravasation | induced a disorganization of intercellular junctions | induced an important release of fibronectin/fragments | neither tPA nor OGD were sufficient to induce increased BBB permeability | decreased | Large edema | increased infarct volume | 86.05% | increased | 10 fold |
